From US8846861B2, “Peptide clearing agents” (Mologic Ltd, priority 2009, dated 2014)
Entries after “also recorded” stand apart in the source; their conditions may differ. Where two headings read alike, the source gives them in different places.

Tests used:
[1] = molecular target: CPG2 enzyme activity of ScFV anti CEA-CPG2; experiment: Spectrophotometric CPG2 enzyme inhibition assay (methotrexate hydrolysis, absorbance at 320 nm); format: biochemical, Psuedomonas; conditions: for IC50: methotrexate substrate 60 μM, 37° C., pH 7.3; for inhibition of CPG2 activity (in words): spectrophotometric assay
Experimental: Enzyme Inhibition Assay Method Used for the Assessment of CP014 as an Inhibitor of CPG2 Activity
The effect that CP014 had on CPG2 activity was measured using a spectrophotometric assay. CP014 was dissolved in assay buffer (0.1 M Tris-HCl buffer at pH 7.3 containing 0.2 mM zinc chloride) to give a concentration of 40 mM. Various aliquots of this solution were added to cuvettes and assay buffer was added to adjust the volume of solution in each cuvette to 900 μL. 100 μL aliquots of 0.6 mM methotrexate solution in assay buffer were added to each cuvette to give a methotrexate substrate concentration of 0.06 mM (60 μM). The range of the concentration of CP014 in the cuvettes was 0-400 μM.
The substrate solutions in the cuvettes were heated to 37° C. in an oven. The cuvettes were then placed in turn in a spectrophotometer which was maintained at 37° C. using a Peltier. The assays were commenced by adding a 10 μL aliquot of fusion protein (ScFV anti CEA-CPG2) solution or CPG2 solution, followed by brief stirring. The hydrolysis of the methotrexate substrate was monitored by measuring the decrease in absorbance at 320 nm.
One unit (1 U) of CPG2 activity is defined as the amount of enzyme which catalyses the hydrolysis of 1 μmol of methotrexate per minute at 37° C. The molar extinction coefficient of methotrexate was taken as 8300 L mol^−1 cm^−1. For each assay a plot of absorbance versus time was created and a straight line was fitted to the data between 0 and 0.2 minutes. The slope of the straight line was then multiplied by minus 12 and the dilution factor of the ScFV anti CEA-CPG2/CPG2 solution to give the enzyme activity in U/mL.
A variation of the assay was to incubate various amounts of CP014 with ScFV anti CEA-CPG2 or CPG for a period of time at 4° C. prior to CPG2 assay. Following this incubation step, a 10 μL aliquot of each mixture was added to a cuvette that contained a 1 mL aliquot of 0.06 mM methotrexate in assay buffer at 37° C. After stirring the contents of the cuvette, the measurement of the decrease in absorbance and subsequent determination of enzyme activity were carried out as described above.
The effectiveness of CP014 in inhibiting CPG2 activity was expressed in terms of its IC50 value, i.e. the half maximal inhibitory concentration. Using GraphPad Prism 5 software, the IC50 value was determined by applying non-linear regression to a plot of enzyme activity versus the logarithm of the CP014 concentration.

[2] = test system: ScFv anti CEA-CPG2 fusion protein; experiment: Binding studies using Surface Plasmon Resonance (Biacore), peptide immobilised on CM5 chip; set-up: species or system Psuedomonas
Source text: Peptide clearing agents of the invention are exemplified herein displaying appropriate kinetics and affinity properties. Such kinetic and affinity properties may be measured using any suitable means. Kinetic and affinity parameters may be derived based upon binding studies using Surface Plasmon Resonance (SPR), which is a well known technique (and commercially available, for example from GE Healthcare—Biacore system). Data obtained using a suitable instrument may be analysed by appropriate software to automatically derive the relevant parameters. An appropriate binding model may be applied by the software to ensure the fit to the curves is as close as possible. A chi2 value of less than 0.2 may be considered an acceptable fit.
Binding Studies Using Surface Plasmon Resonance (SPR)
Peptides were coupled to a CM5 chip using EDC/NHS chemistry as recommended by the manufacturer (GE healthcare). Analytes were made up in HBS-P buffer (0.01 M HEPES pH 7.4, 0.15 M NaCl, 0.005% v/v Surfactant P20) and injected over the surface for 180 seconds at 5 μl/min followed by a dissociation time of 300 seconds. Residual binding was removed using two 10 second injections of regeneration buffer (10 mM CHAPS, 1 mM Guanidinium hydrochloride, 2 M NaCl). Response signals and baselines were checked for consistency throughout the experiment and flow rates of 15 and 75 μl/min were tested to confirm minimal effects due to mass transport.
FIGS. 6a and 6c each show four sensorgrams overlaid. These are the blank-subtracted real time responses from injections of 12.5, 25, 50 and 100 nM ScFVanti-CEA-CPG2 over the chip surface of immobilised CP014 peptide. The data has been fitted using two different algorithms supplied in the BiaCore software (“Biaevaluation”). The first, shown in FIG. 6a, was a 1:1 binding model (Langmuir) and the second, shown in FIG. 6c, was a 2-state reaction fit. Both fits align closely to the normalised sensorgrams. […] In addition, the Chi2 values are 0.154 and 0.0882 respectively and are within the acceptable range (<0.2) for these types of calculation. For both fits the dissociation constant (binding constant KD) was in close agreement at 5 nM and 9 nM, respectively.

[3] = test system: ScFV anti CEA-CPG2; experiment: Non-amplified Amplex Red assay for screening of potential CPG2 substrates; format: biochemical, Psuedomonas; conditions: for substrate potential for CPG2 (in words): Amplex Red fluorescence, CP014 12.5 and 100 μM, FIG. 10 substrate 12.5 μM
Source text: Non-Amplified Amplex Red Assay for the Screening of Potential CPG2 Substrates
It was established that CP014 is a potential inhibitor of CPG2 activity using a spectrophotometric assay. […] The so-called Amplex Red assay can be used to measure to measure L-glutamate in food samples and continuously monitor glutamate oxidase activity. By eliminating an amplification step in the assay procedure, it was possible to screen compounds as substrates for CPG2. In the modified assay, L-glutamic acid that has been cleaved from a substrate of CPG2 is oxidised by glutamate oxidase to produce α-ketoglutarate, ammonia and hydrogen peroxide. The hydrogen peroxide then reacts with 10-acetyl-3,7-dihydroxyphenoxazine (Amplex Red reagent) in a 1:1 stoichiometry in a reaction catalysed by horseradish peroxidise (HRP) to generate the highly fluorescent product, resorufin.
25 μM and 200 μM solutions of CP014 in assay buffer (0.1 M Tris-HCl buffer at […] containing 0.2 mM zinc chloride), and a 25 μM solution of folic acid in assay buffer were prepared. The Amplex Red reagent mixture was prepared by combining 2.5 μL 10 mM solution of Amplex Red reagent in DMSO, 5 μL HRP solution in assay buffer (100 U/mL), 32 μL L-glutamate oxidase solution in assay buffer (5 U/mL) and 460.5 μL assay buffer solution. ScFV anti CEA-CPG2 fusion protein was diluted appropriately using assay buffer.
A 50 μL aliquot of CP014 solution or 25 μM folic acid solution and a 50 μL aliquot of the Amplex Red reagent mixture were added to a well of a black microtitre plate. The plate was covered, then incubated at 37° C. for 10 minutes. The cover was removed and a 1 μL aliquot of ScFV anti CEA-CPG2 was added. After brief stirring, the plate was placed in a BMG Fluostar Omega plate reader and the fluorescence intensity was monitored over a 245 second period at 5 second intervals. The excitation filter wavelength was set at 544 nm and the emission filter wavelength was set at 590 nm.
When ScFV anti CEA-CPG2 was diluted to a concentration of approximately 2 U/mL, the slope value that was calculated for the 12.5 μM folic acid control assay was approximately 4.0.

With `Nc1ccc2ccccc2c1C(=O)N[C@@H](CCC(=O)O)C(=O)O` [CP006, Amino-Naphthoic Acid (ANA)-Glutamate (Glu)] the IC50 [1] was 88.5 µM, the IC50 ([1]; listed as formula I) was roughly 88.5 µM and the “inhibition of CPG2 activity (in words)” value [1] was “is an inhibitor”. The “affinity for the active site of CPG2 (in words)” value [2] was “nanomolar affinity”, the “substrate potential for CPG2 (in words)” value [3] was “Poor Substrate; also recorded: low substrate activity” and the “substrate potential for CPG2 (in words)” value ([3]; listed as formula I) was “not acted upon as a substrate”.
For `C[C@@H](NC(=O)[C@@H](N)CO[C@H]1OC(CO)[C@H](O)C(O)C1O)C(=O)Nc1ccc2ccccc2c1C(=O)NC(CCC(=O)O)C(=O)O` (stereo partly drawn) [CP014], the IC50 [1] was 110 µM, the IC50 ([1]; listed as formula II) was roughly 110 µM and the “inhibition of CPG2 activity (in words)” value [1] was “inhibits CPG2 activity; also recorded: is an inhibitor”. For the same compound, the “affinity for the active site of CPG2 (in words)” value [2] was “nanomolar affinity”, the “KA (equilibrium association constant)” value ([2]; 1:1 Langmuir fit) was 1.98e+08 M⁻¹ and the “Ka (association rate constant)” value ([2]; 1:1 Langmuir fit) was 226000 M⁻¹ s⁻¹. For the same compound, the “Kd (dissociation rate constant)” value ([2]; 1:1 Langmuir fit) was 0.00114 s⁻¹, the Kd ([2]; 1:1 Langmuir fit, read-out: KD (dissociation constant)) was 0.00504 µM and the Kd ([2]; 1:1 Langmuir fit, read-out: dissociation constant (binding constant KD)) was 0.005 µM. For the same compound, the “K (equilibrium association constant)” value ([2]; 2 state reaction fit) was 1.09e+08 M⁻¹, the ka1 ([2]; 2 state reaction fit) was 284000 M⁻¹ s⁻¹ and the ka2 ([2]; 2 state reaction fit) was 0.014 s⁻¹. The kd1 ([2]; 2 state reaction fit) was 0.0258 s⁻¹, the kd2 ([2]; 2 state reaction fit) was 0.00158 s⁻¹ and the Kd ([2]; 2 state reaction fit, read-out: dissociation constant (binding constant KD)) was 0.009 µM. The “slope of fluorescence intensity versus time, against negative control (in words)” value ([3]; 12.5 and 100 μM in the plate well) was “no greater than that of the negative control sample”, the “substrate potential for CPG2 (in words)” value [3] was “not a substrate; also recorded: not altered or used as a substrate; also recorded: not turned over” and the “substrate potential for CPG2 (in words)” value ([3]; listed as formula II) was “not acted upon as a substrate”.
For `Nc1nc2ncc(CNc3ccc(C(=O)N[C@@H](CCC(=O)O)C(=O)O)cc3)nc2c(=O)[nH]1` [Folic acid, reference compound], the “slope of fluorescence intensity versus time” value ([3]; 12.5 μM in well, ScFV anti CEA-CPG2 approximately 2 U/mL) was “approximately 4.0” and the “substrate potential for CPG2 (in words)” value [3] was “positive controls”.
With `CN(Cc1cnc2nc(N)nc(N)c2n1)c1ccc(C(=O)N[C@@H](CCC(=O)O)C(=O)O)cc1` [methotrexate, reference compound] the “substrate potential for CPG2 (in words)” value [3] was “positive controls”.
